Measurements reported in PubChem BioAssay AID1963979 (Molecular Pharmacology Branch, DTP, NCI, 2024).

Tested on: 361931-004-R-J1-PDC multicell spheroid viability
Assay: Anticancer human tumor 361931-004-R-J1-PDC patient-derived colon adenocarcinoma cell line growth inhibition [PI3K]
Settings: for IC50: curve of first compound; for viability, T/C: stronger effect = lower value
Method in brief: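 We assembled tumor spheroids that included a stromal compartment of HUVEC and MSCs, then exposed them to targeted agents alone and together with PI3K pathway inhibitors. Concentration series descended by half-log from clinically achievable Cmax levels. Viability served as the endpoint.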

[1] = second compound 0.00316 µM, first compound 0.0316 µM
[2] = second compound 0.00316 µM, first compound 0.1 µM
[3] = second compound 0.00316 µM, first compound 0.316 µM
[4] = second compound 0.00316 µM, first compound 1 µM
[5] = second compound 0.00316 µM, first compound 3.16 µM
[6] = second compound 0.00316 µM, first compound 10 µM
[7] = second compound 0.01 µM, first compound 0.0316 µM
[8] = second compound 0.01 µM, first compound 0.1 µM
[9] = second compound 0.01 µM, first compound 0.316 µM
[10] = second compound 0.01 µM, first compound 1 µM
[11] = second compound 0.01 µM, first compound 3.16 µM
[12] = second compound 0.01 µM, first compound 10 µM
[13] = second compound 0.0316 µM, first compound 0.0316 µM
[14] = second compound 0.0316 µM, first compound 0.1 µM
[15] = second compound 0.0316 µM, first compound 0.316 µM
[16] = second compound 0.0316 µM, first compound 1 µM
[17] = second compound 0.0316 µM, first compound 3.16 µM
[18] = second compound 0.0316 µM, first compound 10 µM
[19] = second compound 0.1 µM, first compound 0.0316 µM
[20] = second compound 0.1 µM, first compound 0.1 µM
[21] = second compound 0.1 µM, first compound 0.316 µM
[22] = second compound 0.1 µM, first compound 1 µM
[23] = second compound 0.1 µM, first compound 3.16 µM
[24] = second compound 0.1 µM, first compound 10 µM
[25] = second compound 0.316 µM, first compound 0.0316 µM
[26] = second compound 0.316 µM, first compound 0.1 µM
[27] = second compound 0.316 µM, first compound 0.316 µM
[28] = second compound 0.316 µM, first compound 1 µM
[29] = second compound 0.316 µM, first compound 3.16 µM
[30] = second compound 0.316 µM, first compound 10 µM
[31] = second compound 1 µM, first compound 0.0316 µM
[32] = second compound 1 µM, first compound 0.1 µM
[33] = second compound 1 µM, first compound 0.316 µM
[34] = second compound 1 µM, first compound 1 µM
[35] = second compound 1 µM, first compound 3.16 µM
[36] = second compound 1 µM, first compound 10 µM
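Also: spheroids exposed to agents for seven days before readout.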

SMILES: C#Cc1c(F)ccc2cc(O)cc(-c3ncc4c(N5CC6CCC(C5)N6)nc(OCC56CCCN5CC(F)C6)nc4c3F)c12 (stereo not drawn) + COc1c(OCCCN2CCOCC2)ccc2c3n(c(=NC(=O)c4cnc(N)nc4)nc12)CCN3
- IC50 (second compound 0.00316 µM): > 10 µM
- IC50 (second compound 0.01 µM): > 10 µM
- IC50 (second compound 0.0316 µM): > 10 µM
- IC50 (second compound 0.1 µM): 5.65 µM
- IC50 (second compound 0.316 µM): 0.101 µM
- IC50 (second compound 1 µM): < 0.0316 µM
- viability, T/C [1]: 105%
- viability, T/C [2]: 108%
- viability, T/C [3]: 98.1%
- viability, T/C [4]: 91.9%
- viability, T/C [5]: 101%
- viability, T/C [6]: 84.9%
- viability, T/C [7]: 107%
- viability, T/C [8]: 106%
- viability, T/C [9]: 99.1%
- viability, T/C [10]: 91%
- viability, T/C [11]: 88.8%
- viability, T/C [12]: 73%
- viability, T/C [13]: 91.5%
- viability, T/C [14]: 96.2%
- viability, T/C [15]: 85.9%
- viability, T/C [16]: 72.5%
- viability, T/C [17]: 67.2%
- viability, T/C [18]: 51.5%
- viability, T/C [19]: 80.6%
- viability, T/C [20]: 69.9%
- viability, T/C [21]: 68.5%
- viability, T/C [22]: 61.8%
- viability, T/C [23]: 54.6%
- viability, T/C [24]: 45.7%
- viability, T/C [25]: 54.5%
- viability, T/C [26]: 51.9%
- viability, T/C [27]: 42.3%
- viability, T/C [28]: 37.3%
- viability, T/C [29]: 33.6%
- viability, T/C [30]: 23%
- viability, T/C [31]: 18.4%
- viability, T/C [32]: 17.6%
- viability, T/C [33]: 14.9%
- viability, T/C [34]: 12.1%
- viability, T/C [35]: 9.63%
- viability, T/C [36]: 8.02%

SMILES: C=CC(=O)N1CCN(c2nc(=O)n(-c3c(C)ccnc3C(C)C)c3nc(-c4c(O)cccc4F)c(F)cc23)C(C)C1 (stereo not drawn) + COc1c(OCCCN2CCOCC2)ccc2c3n(c(=NC(=O)c4cnc(N)nc4)nc12)CCN3
- IC50 (second compound 0.00316 µM): > 10 µM
- IC50 (second compound 0.01 µM): > 10 µM
- IC50 (second compound 0.0316 µM): > 10 µM
- IC50 (second compound 0.1 µM): > 10 µM
- IC50 (second compound 0.316 µM): 0.0316 µM
- IC50 (second compound 1 µM): < 0.0316 µM
- viability, T/C [1]: 97.7%
- viability, T/C [2]: 100%
- viability, T/C [3]: 100%
- viability, T/C [4]: 98.7%
- viability, T/C [5]: 99.9%
- viability, T/C [6]: 90.1%
- viability, T/C [7]: 98%
- viability, T/C [8]: 95%
- viability, T/C [9]: 92.6%
- viability, T/C [10]: 94.4%
- viability, T/C [11]: 103%
- viability, T/C [12]: 89%
- viability, T/C [13]: 94.6%
- viability, T/C [14]: 89.5%
- viability, T/C [15]: 90.6%
- viability, T/C [16]: 94.7%
- viability, T/C [17]: 91.6%
- viability, T/C [18]: 82.4%
- viability, T/C [19]: 83.8%
- viability, T/C [20]: 80.3%
- viability, T/C [21]: 77.8%
- viability, T/C [22]: 76%
- viability, T/C [23]: 78.8%
- viability, T/C [24]: 54.9%
- viability, T/C [25]: 48.7%
- viability, T/C [26]: 49.8%
- viability, T/C [27]: 47.1%
- viability, T/C [28]: 39.5%
- viability, T/C [29]: 51.1%
- viability, T/C [30]: 32.8%
- viability, T/C [31]: 20.4%
- viability, T/C [32]: 22.1%
- viability, T/C [33]: 15.4%
- viability, T/C [34]: 20.2%
- viability, T/C [35]: 18.3%
- viability, T/C [36]: 12.4%

SMILES: CC(Cn1ccc(-c2ccc(C#N)c(Cl)c2)n1)NC(=O)c1cc(C(C)O)[nH]n1 (stereo not drawn) + COc1c(OCCCN2CCOCC2)ccc2c3n(c(=NC(=O)c4cnc(N)nc4)nc12)CCN3
- IC50 (second compound 0.00316 µM): > 10 µM
- IC50 (second compound 0.01 µM): > 10 µM
- IC50 (second compound 0.0316 µM): > 10 µM
- IC50 (second compound 0.1 µM): > 10 µM
- IC50 (second compound 0.316 µM): 0.0487 µM
- IC50 (second compound 1 µM): < 0.0316 µM
- viability, T/C [1]: 103%
- viability, T/C [2]: 92.1%
- viability, T/C [3]: 97.7%
- viability, T/C [4]: 103%
- viability, T/C [5]: 103%
- viability, T/C [6]: 98%
- viability, T/C [7]: 102%
- viability, T/C [8]: 102%
- viability, T/C [9]: 99.1%
- viability, T/C [10]: 93.5%
- viability, T/C [11]: 98.1%
- viability, T/C [12]: 95%
- viability, T/C [13]: 95.1%
- viability, T/C [14]: 94.7%
- viability, T/C [15]: 83.5%
- viability, T/C [16]: 93.4%
- viability, T/C [17]: 89.4%
- viability, T/C [18]: 78%
- viability, T/C [19]: 81.5%
- viability, T/C [20]: 83.2%
- viability, T/C [21]: 76.8%
- viability, T/C [22]: 70.3%
- viability, T/C [23]: 78%
- viability, T/C [24]: 62.1%
- viability, T/C [25]: 51.4%
- viability, T/C [26]: 49.5%
- viability, T/C [27]: 47.6%
- viability, T/C [28]: 44%
- viability, T/C [29]: 42.4%
- viability, T/C [30]: 30.6%
- viability, T/C [31]: 20.5%
- viability, T/C [32]: 19%
- viability, T/C [33]: 15.8%
- viability, T/C [34]: 19.5%
- viability, T/C [35]: 16.7%
- viability, T/C [36]: 11.9%

SMILES: CC1(C)CCC(Nc2ncc(C(F)(F)F)c(-c3c[nH]c4c(P(C)(C)=O)c(C#N)ccc34)n2)CN1 (stereo not drawn) + COc1c(OCCCN2CCOCC2)ccc2c3n(c(=NC(=O)c4cnc(N)nc4)nc12)CCN3
- IC50 (second compound 0.00316 µM): 5.54 µM
- IC50 (second compound 0.01 µM): 4.87 µM
- IC50 (second compound 0.0316 µM): 4.49 µM
- IC50 (second compound 0.1 µM): 3.68 µM
- IC50 (second compound 0.316 µM): < 0.0316 µM
- IC50 (second compound 1 µM): < 0.0316 µM
- viability, T/C [1]: 85.5%
- viability, T/C [2]: 94.7%
- viability, T/C [3]: 83.8%
- viability, T/C [4]: 92.7%
- viability, T/C [5]: 85.1%
- viability, T/C [6]: 12.9%
- viability, T/C [7]: 92.4%
- viability, T/C [8]: 92.7%
- viability, T/C [9]: 82%
- viability, T/C [10]: 83.1%
- viability, T/C [11]: 73.6%
- viability, T/C [12]: 12.7%
- viability, T/C [13]: 80.7%
- viability, T/C [14]: 72.5%
- viability, T/C [15]: 67.7%
- viability, T/C [16]: 66.3%
- viability, T/C [17]: 67.1%
- viability, T/C [18]: 12%
- viability, T/C [19]: 63.4%
- viability, T/C [20]: 56.6%
- viability, T/C [21]: 59.3%
- viability, T/C [22]: 51.6%
- viability, T/C [23]: 56.6%
- viability, T/C [24]: 8.34%
- viability, T/C [25]: 39.4%
- viability, T/C [26]: 49.5%
- viability, T/C [27]: 43.8%
- viability, T/C [28]: 44.2%
- viability, T/C [29]: 42.6%
- viability, T/C [30]: 5.6%
- viability, T/C [31]: 20.4%
- viability, T/C [32]: 18.4%
- viability, T/C [33]: 19.9%
- viability, T/C [34]: 24.3%
- viability, T/C [35]: 19.9%
- viability, T/C [36]: 2.05%
